The values below come from article PMC10813753 (Biology, 2024).

Series [1] concerns ds17 (DNA, duplex) GGGTTACTACGAACTGG/CCAGTTCGTAGTAACCC
Briefly: equilibrium dialysis (non-competition). To be noted: 100 mM KCl, 10 mM potassium phosphate pH 7.2, 22 °C, 2 μM ligand, 75 μM base pairs, apparent, per base pair. (In general: In equilibrium dialysis free small molecules cross a membrane that holds back macromolecules.)

The test system of series [2] is F21T (DNA, G4) GGGTTAGGGTTAGGGTTAGGG
Briefly: FRET melting (renaturing curve). To be noted: 10 mM K+, 90 mM Li+; 10 mM Li-cacodylate pH 7.3; 0.2 μM DNA; 10 μM compound.

The subject of series [3] is F10T (DNA, hairpin, Sp18 (hexaethylene glycol type spacer) between 10 and 11) TATAGCTATATAGCTATA
Briefly: FRET melting (renaturing curve). To be noted: 100 mM LiCl; 10 mM Li-cacodylate; 0.2 μM DNA; 10 μM compound.

Series [4] deals with Tel22 (DNA, G4) AGGGTTAGGGTTAGGGTTAGGG
Briefly: equilibrium dialysis (non-competition). To be noted: 100 mM KCl; 10 mM potassium phosphate pH 7.2, 22 °C; 2 μM ligand, 75 μM tetrads; apparent; per tetrad; per base.

For series [5] the test system is unchanged. In words: circular dichroism titration. Conditions: 10 mM K+, 90 mM Li+; 10 mM Li-cacodylate pH 7.3, 25 °C; 4 μM DNA, DNA/ligand 1:1 to 1:5.
For series [6], the system named is HFF-1 cells (healthy fibroblasts). Briefly: MTT viability assay HFF-1. The series is classed as cell-based, human. The procedure: (§1) A panel of five tumor cell lines and two normal cell lines was used to preliminarily test the cytotoxicity of compounds 1–4, and the experiments were conducted as previously reported. All human cell lines were acquired from American Type Culture Collection (ATCC): tumor PC-3 and DU145 (prostate), HeLa (cervix), MCF7 (breast) and HT29 (colorectal) and healthy HFF-1 (fibroblast) and RWPE-1 (prostate). The cell catalogue reference and culture media used in the experiments were CRL-1435^TM, RPMI (PC-3), HTB-81™, RPMI (DU145), CCL-2^TM, DMEM (HeLa), HTB-22^TM, DMEM (MCF-7), HTB-38^TM, modified McCoy’s 5a medium, Catalogue No. 30-2007 (HT29), SCRC-1041^TM, DMEM (HFF-1) and CRL-11609^TM, Keratinocyte-SFM (RWPE-1). Culture media were purchased from Merck: RPMI-1640, DMEM + 10% FBS (Fetal Bovine Serum) + […] (penicillin/streptomycin/amphotericin B). Media and supplements for RWPE-1 were from ThermoFisher (17005075, Madrid, Spain). MCF7 cells were additionally supplemented with insulin (0.001 mg/mL in 500 mL media). Cells were kept at 37 °C (5% CO2), and culture media were renewed three times per week. When the cells reached 80–100% confluence, they were trypsinized and centrifuged, and the concentration was adjusted to each experiment. Cells were seeded at a density of ~10,000 cells/well into 24-well plates. The cells were treated with ligands 1–4 or the cytotoxic agents PhenQE8, PhenDC3 or cisplatin at different concentrations (10 nM–100 μM). Compound solutions were freshly prepared using the appropriate culture medium. Triplicate experiments were run. For MTT viability assays, after 72 h incubation, 50 μL of MTT (5 mg/mL) was added, and an additional incubation of 4 h was allowed. The medium in each well was then replaced by DMSO, and the absorbance was measured at 570 nm using an ELISA plate reader. Absorbances were normalized using negative controls (untreated cells, in triplicate, with a maximum of 0.9% DMSO content). Dose–response curves were obtained by plotting the percentage of viable cells versus logarithmic compound concentration. IC50 values were determined using Kaleidagragh^TM (3.52) software by adjusting the data to Equation 1/(1 + 10^(m2*(log(m1) − x))); m1 = 0.000003; m2 = 1.
A general note: Tetrazolium dyes change colour on reduction, which living cells bring about.

Another series relates to MCF-7 cells (breast). In words: MTT viability assay MCF-7. The series is classed as cell-based, human. How it is done:
as §1

The next series has as its system HeLa cells (cervix). Briefly: MTT viability assay HeLa. To be noted: 72 h. In kind it is cell-based, human. The procedure: as §1
The test system of series [7] is DU145 cells (prostate tumor). In words: MTT viability assay DU145. In kind it is cell-based, human. The procedure: as §1
The test system of series [8] is PC-3 cells (prostate tumor). Briefly: MTT viability assay PC-3. Conditions: MTT, 72 h. The series is classed as cell-based, human. How it is done: as §1
Series [9] concerns RWPE-1 cells (healthy prostate). In words: MTT viability assay RWPE-1. The series is classed as cell-based, human. The procedure: as §1
In the next series the test system is Calf thymus CT DNA. Conditions: cited from earlier work.
Series [10] deals with G4 Tel22 telomeric quadruplex DNA. Also on record: method as in PMID 33451070. Conditions: previously reported ref 29; cited from earlier work.
For another series, the system named is HT29 cells (colorectal). In words: MTT viability assay HT29. In kind it is cell-based, human. How it is done:
as §1, with “Dose–response curves were obtained by plotting the percentage of viable cells versus logarithmic compound concentration.” left out

Series [11] deals with PC-3, DU145, HeLa, MCF-7, HT29, HFF-1 and RWPE-1 cells. In words: MTT viability assay, whole cell panel. The series is classed as cell-based, human. Conditions: 72 h, up to 100 μM. The procedure: A panel of five tumor cell lines and two normal cell lines was used to preliminarily test the cytotoxicity of compounds 1–4, and the experiments were conducted as previously reported. All human cell lines were acquired from American Type Culture Collection (ATCC): tumor PC-3 and DU145 (prostate), HeLa (cervix), MCF7 (breast) and HT29 (colorectal) and healthy HFF-1 (fibroblast) and RWPE-1 (prostate). The cell catalogue reference and culture media used in the experiments were CRL-1435^TM, RPMI (PC-3), HTB-81™, RPMI (DU145), CCL-2^TM, DMEM (HeLa), HTB-22^TM, DMEM (MCF-7), HTB-38^TM, modified McCoy’s 5a medium, Catalogue No. 30-2007 (HT29), SCRC-1041^TM, DMEM (HFF-1) and CRL-11609^TM, Keratinocyte-SFM (RWPE-1). Culture media were purchased from Merck: RPMI-1640, DMEM + 10% FBS (Fetal Bovine Serum) + […] (penicillin/streptomycin/amphotericin B). Media and supplements for RWPE-1 were from ThermoFisher (17005075, Madrid, Spain). […] The medium in each well was then replaced by DMSO, and the absorbance was measured at 570 nm using an ELISA plate reader. Absorbances were normalized using negative controls (untreated cells, in triplicate, with a maximum of 0.9% DMSO content). […] IC50 values were determined using Kaleidagragh^TM (3.52) software by adjusting the data to Equation 1/(1 + 10^(m2*(log(m1) − x))); m1 = 0.000003; m2 = 1.

Series [12] relates to telomeric G4 sequence F21T. Briefly: FRET-based DNA melting assay, telomeric G4 F21T. The series is classed as binding, human. Conditions: 10 μM compound, 0.2 μM F21T, renaturing process, K+ buffer. How it is done: FRET DNA melting assays were conducted following standard reported procedures. Briefly, the employed oligonucleotides F21T (5′-FAM—(GGG TTA)3GGG—TAMRA-3′) and F10T (5′-FAM—TAT AGC TA TA/Sp18/TA GCT ATA—TAMRA-3′) were dissolved in buffer at 0.25 μM concentration and annealed by heating at 90 °C for 5 min, and then immediately cooling to 0 °C, in the case of F21T, or slowly to rt (F10T) during a period of 3 hours. The solutions were allowed to stand at 4 °C at least overnight.
Tested compounds 1–4 were dissolved in water with up to a maximum 10% DMSO (50 μM stock solution). Each stock solution was then gradually diluted to reach the final concentrations in the assay from 0 to 10 μM and a fixed 0.2 μM concentration of target sequences F21T or F10T. The buffer used for G4 sequence F21T was 10 mM KCl, 90 mM LiCl and 10 mM Li-cacodylate, pH 7.3. The buffer employed for F10T was 100 mM LiCl and 10 mM Li-cacodylate.
The melting process program consisted of an incubation step at 24 °C for 5 min and then a temperature ramp (1 °C/min rate) with fluorescence recordings at every degree up to 95 °C. Subsequently, the microplate with the samples (50 μL) was incubated for 5 min at 96 °C and then gradually cooled by using a temperature ramp of −1 °C/min, with fluorescence measurements at every degree down to 25 °C. The melting and refolding (or renaturing) curves were registered based on the change in emission of the FAM (6-carboxyfluorescein) fluorophore, excited at 492 nm and emitting at 516 nm. Melting temperature values (Tm) were determined from replicate experiments using normalized curves and considering mid-transition T1/2 temperatures.

Structures can show the parent of a compound that is named as a salt. Where two headings read alike, the source gives them in different places.

On to `NC(=S)N/N=C/c1ccc2ccc3ccc(/C=N/NC(N)=S)nc3c2n1` (as salt: phosphate) [compound 2, 2,2′-(1,10-Phenanthroline-2,9-diyl)-bis(methylene)-bis(hydrazine-1-carbothioamide) Hexafluorophosphate Salt], for which the melting point – broadly, the temperature of the solid-liquid transition – was > 240 °C (dec.).
On to `NC(=S)N/N=C/c1ccc2ccc3ccc(/C=N/NC(N)=S)nc3c2n1` [1], for which the Kapp in [1] was 0.06 ± 0.01 × 10^5 M^-1; in [4], 1.1 ± 0.1 × 10^5 M^-1. The ΔTm is ~ 12 °C in series [2] and ~ 0 °C in series [3]. Also, the binding entry in [5] is on record as “yes”.
For `NC(=S)N/N=C/c1ccc2ccc3ccc(/C=N/NC(N)=S)nc3c2n1` [2], in series [2], the ΔTm is ~ 15 °C.
Still for that read-out and setting: to `NC(=S)N/N=C/c1ccc2ccc3ccc(/C=N/NC(N)=S)nc3c2n1` [3] belongs ~ 10 °C.
Take `C[n+]1cc(NC(=O)c2ccc3ccc4ccc(C(=O)Nc5cc6ccccc6[n+](C)c5)nc4c3n2)cc2ccccc21` [PhenDC3]: the IC50 (as a rule, the concentration that gives 50% inhibition) is 32.2 ± 4.2 µM in series [6] (Homo sapiens, HFF-1, 72 h); 2.4 ± 0.8 µM in the series on MCF-7 cells (breast) (Homo sapiens, MCF7, 72 h); greater than 100 µM with HeLa cells (cervix) (Homo sapiens, HeLa); 7.3 ± 1 µM in series [7] (Homo sapiens, DU-145, 72 h); 55.5 ± 3.1 µM in [8] (Homo sapiens, PC-3, 72 h); 8.2 ± 1.1 µM in series [9] (Homo sapiens, RWPE-1, 72 h).
On to `N=C(N)N/N=C/c1ccc2ccc3ccc(/C=N/NC(=N)N)nc3c2n1` [PhenQE8], for which, in the series with Calf thymus CT DNA (determined in previous studies ref 29), the “viscosity slope, (η/ηo)^1/3 versus r” value is recorded as “ca. 0.24”. Moreover, the IC50 in series [6] (Homo sapiens, HFF-1, 72 h) was determined as 170 ± 23.3 µM; in the series with MCF-7 cells (breast) (Homo sapiens, MCF7, 72 h), 44.9 ± 9.2 µM; in the series with HeLa cells (cervix) (Homo sapiens, HeLa) it was 16.2 ± 1.6 µM; in series [7] (Homo sapiens, DU-145, 72 h), 22.7 ± 1.1 µM; in series [8] (Homo sapiens, PC-3, 72 h), 5.6 ± 0.3 µM; in [9] (Homo sapiens, RWPE-1, 72 h) it was 38.8 ± 0.5 µM. Further, the “binding selectivity quadruplex/dsDNA” value in series [10] is 90 fold.
With `N.N.[Cl][Pt][Cl]` [cisplatin], the IC50 in [6] (72 h) stood at 36.6 ± 4.4 µM; in the series with MCF-7 cells (breast) (72 h), 96.5 ± 6.7 µM; in the series on HT29 cells (colorectal) (72 h), 86.6 ± 7 µM; in the series on HeLa cells (cervix), 18 ± 1.9 µM; in series [7] (72 h), 8.4 ± 1.5 µM; in [8], 12.8 ± 0.9 µM. The same molecule had an IC50 in [9] (72 h) of 16.4 ± 1.4 µM.
For the molecule `C(=N\Nc1nc(-c2ccccc2)cs1)/c1ccc2ccc3ccc(/C=N/Nc4nc(-c5ccccc5)cs4)nc3c2n1` [compound 4, 2,9-bis((E)-(2-(4-Phenylthiazol-2-yl)hydrazineylidene)methyl)-1,10-phenanthroline], the melting point was > 250 °C (dec.). Moreover, the ΔTm in series [2] was ~ 3 °C. Further, the ΔTm in [3] is ~ 0 °C. In series [6] (Homo sapiens, HFF-1, 72 h), this molecule showed an IC50 greater than 100 µM. The molecule also had an IC50 in the series on MCF-7 cells (breast) (Homo sapiens, MCF7, 72 h) greater than 100 µM. Further, in the series on HT29 cells (colorectal) (Homo sapiens, HT-29, 72 h), the IC50 was greater than 100 µM. Further, the IC50 in the series on HeLa cells (cervix) (Homo sapiens, HeLa) is greater than 100 µM. Further, the “cytotoxicity in all cell lines tested” value in series [11] was “non-cytotoxic”. Moreover, the IC50 in [7] (Homo sapiens, DU-145, 72 h) is greater than 100 µM. For the same molecule, the IC50 in [8] (Homo sapiens, PC-3, 72 h) is greater than 100 µM. In addition, the IC50 in series [9] (Homo sapiens, RWPE-1, 72 h) is greater than 100 µM. For the same molecule, in series [12], the “ΔTm of telomeric G4 F21T” value was ~ 3 °C.
Take `CC[n+]1c(-c2ccccc2)c2cc(N)ccc2c2ccc(N)cc21` [ethidium bromide]: the “viscosity slope, (η/ηo)^1/3 versus r” value in the series with Calf thymus CT DNA (classical monointercalating agent ref 50, 51) is reported as ~ 1.0.
